Assay: Inhibition of IL-5 in mouse pro-B Y16 cells after 48 hrs by WST1 assay

Row | Structure (SMILES) | IC50
1 | CC(C)(C)c1ccc(C(O)/C=C/c2coc3cccc(OCC4CCCCC4)c3c2=O)cc1 (centres undefined) | > 30 µM
2 | CC(C)COc1cccc2occ(/C=C/C(O)c3ccc(O)cc3)c(=O)c12 (centres undefined) | > 30 µM
3 | COc1cccc2occ(/C=C/C(O)c3ccc(O)cc3)c(=O)c12 (centres undefined) | > 30 µM
4 | N#Cc1ccc(C(=O)/C=C/c2coc3cccc(OCC4CCCCC4)c3c2=O)cc1 | > 30 µM
5 | O=C(/C=C/c1coc2cccc(OCC3CCCCC3)c2c1=O)c1ccc([N+](=O)[O-])cc1 | > 30 µM
6 | O=C(/C=C/c1coc2cccc(OCC3CCCCC3)c2c1=O)c1ccc(C(F)(F)F)cc1 | > 30 µM
7 | O=C(/C=C/c1coc2cccc(OCC3CCCCC3)c2c1=O)c1ccc(F)cc1 | > 30 µM
8 | O=C(/C=C/c1coc2cccc(OCC3CCCCC3)c2c1=O)c1ccc(Cl)cc1 | > 30 µM
9 | CC(C)(C)c1ccc(C(=O)/C=C/c2coc3cccc(OCC4CCCCC4)c3c2=O)cc1 | 18.1 µM
10 | Cc1ccc(C(=O)/C=C/c2coc3cccc(OCC4CCCCC4)c3c2=O)cc1 | 25.1 µM
11 | COc1ccc(C(=O)/C=C/c2coc3cccc(OCC4CCCCC4)c3c2=O)cc1 | > 30 µM
12 | O=C(/C=C/c1coc2cccc(OCC3CCCCC3)c2c1=O)c1ccccc1 | > 30 µM
13 | O=C(/C=C/c1coc2cccc(OCC3CCCCC3)c2c1=O)c1ccc(O)cc1 | 16.2 µM
14 | CC(C)COc1cccc2occ(/C=C/C(=O)c3ccc(O)cc3)c(=O)c12 | 19.1 µM
15 | COc1cccc2occ(/C=C/C(=O)c3ccc(O)cc3)c(=O)c12 | > 30 µM

The remaining compounds from weak to strong by IC50, led by results:

Row | IC50 | Structure (SMILES)
16 | 16 µM | COc1ccc(C(O)/C=C/c2coc3cccc(OCC4CCCCC4)c3c2=O)cc1 (centres undefined)
17 | 15 µM | Cc1ccc(C(O)/C=C/c2coc3cccc(OCC4CCCCC4)c3c2=O)cc1 (centres undefined)
18 | 15 µM | O=c1c(/C=C/C(O)c2ccccc2)coc2cccc(OCC3CCCCC3)c12 (centres undefined)
19 | 13.2 µM | O=c1c(/C=C/C(O)c2ccc(C(F)(F)F)cc2)coc2cccc(OCC3CCCCC3)c12 (centres undefined)
20 | 12.5 µM | O=c1c(/C=C/C(O)c2ccc(O)cc2)coc2cccc(OCC3CCCCC3)c12 (centres undefined)
21 | 7 µM | O=c1c(/C=C/C(O)c2ccc([N+](=O)[O-])cc2)coc2cccc(OCC3CCCCC3)c12 (centres undefined)
22 | 7 µM | O=c1c(/C=C/C(O)c2ccc(Cl)cc2)coc2cccc(OCC3CCCCC3)c12 (centres undefined)
23 | 6.7 µM | N#Cc1ccc(C(O)/C=C/c2coc3cccc(OCC4CCCCC4)c3c2=O)cc1 (centres undefined)
24 | 6.4 µM | O=c1c(/C=C/C(O)c2ccc(F)cc2)coc2cccc(OCC3CCCCC3)c12 (centres undefined)
